Format in all cases: cell-based
For experiment [1], the system named is Staphylococcus aureus (ATCC # 29213). Put plainly: Broth microdilution MIC. The settings on record: for MIC: Staphylococcus aureus, ATCC29213. The protocol:
(§1) A broth microdilution assay is used to assess the antimicrobial activity of the compounds. […] Microorganisms tested include Staphylococcus aureus (ATCC # 29213), Enterococcus faecalis (ATCC # 29212), Pseudomonas aeruginosa (ATCC # 27853), and Escherichia coli (ATCC # 25922). The assay is performed in two growth media, Mueller Hinton Broth and Trypticase Soy Broth. […] Colonies are suspended in sterile broth so that the turbidity matches the turbidity of a 0.5 McFarland standard. The inoculum is diluted 1:10 in sterile broth (Mueller Hinton or Trypticase soy) and 195 ul is dispensed per well of a 96-well plate. The compounds to be tested, dissolved in DMSO, are added to the wells in 5 ul volume at the following concentrations: 25, 12.5, 6.25, 3.125, 1.56 and 0.78 ug/ml in duplicate. Additional concentrations are tested if required. 5 ul of DMSO added to duplicate wells are the vehicle control. Serial dilutions of positive control compounds, vancomycin (E. faecalis and S. aureus) and tobramycin (E. coli and P. aeruginosa), are included in each run. After 24 hours of incubation at 37° C., plates are read at OD600 on a Molecular Devices SpectraMax Plus Spectrophotometer. Average OD600 values are computed using SOFTmax Pro Software (Molecular Devices) and MIC values are determined by linear regression analysis using Prism version 3.02 (Graph Pad Software, San Diego).
A general note: Dilution methods test growth across graded concentrations, often in twofold steps.

Experiment [2] deals with Pseudomonas aeruginosa (ATCC # 27853). The experiment can be described thus: Broth microdilution MIC. The note with it: for PSAE/MH(MIC): Mueller Hinton Broth; for PSAE/Tsoy(MIC): Trypticase Soy Broth. The protocol: as §1
In experiment [3] the test system is Escherichia coli (ATCC # 25922). Put plainly: Broth microdilution MIC. The note with it: for MIC: Escherichia coli, ATCC25922. The procedure: as §1
For experiment [4], the system named is Enterococcus faecalis (ATCC # 29212). The experiment can be described thus: Broth microdilution MIC. The note with it: for MIC: Enterococcus faecalis, ATCC29212. The procedure: as §1
The subject of experiment [5] is MCF-7 human breast cancer cells. Put plainly: [14C]acetate incorporation into total lipids. The settings on record: for IC50: Homo sapiens, MCF7, [14C]acetate incorporation into lipids. The protocol: This assay measures the incorporation of [^14C]acetate into total lipids and is a measure of fatty acid synthesis pathway activity in vitro. It is utilized to measure inhibition of fatty acid synthesis in vitro.
MCF-7 human breast cancer cells cultured as above, are plated at 5×10^4 cells per well in 24-well plates. […] DMSO is added to triplicate wells for a vehicle control. C75 is run at 5 and 10 μg/ml in triplicate as positive controls. After 4 hours of incubation, 0.25 μCi of [^14C]acetate (10 μl volume) is added to each well.
After 2 hours of additional incubation, medium is aspirated from the wells and 800 μl of chloroform:methanol (2:1) and 700 μl of 4 mM MgCl2 is added to each well. Contents of each well are transferred to 1.5 Eppendorf tubes, and spun at full-speed for 2 minutes in a high-speed Eppendorf Microcentrifuge 5415D. After removal of the aqueous (upper) layer, an additional 700 μl of chloroform:methanol (2:1) and 500 μl of 4 mM MgCl2 are added to each tube and then centrifuged for 1 minutes as above. The aqueous layer is removed with a Pasteur pipette and discarded. An additional 400 μl of chloroform:methanol (2:1) and 200 μl of 4 mM MgCl2 are added to each tube, then centrifuged and aqueous layer is discarded. The lower (organic) phase is transferred into a scintillation vial and dried at 40° C. under N2 gas. Once dried, 3 ml of scintillant (APB #NBC5104) is added and vials are counted for ^14C. The Beckman Scintillation counter calculates the average cpm values for triplicates.
The IC50 for the compounds is defined as the concentration of drug leading to a 50% reduction in [^14C]acetate incorporation into lipids compared to controls. […] The average cpm values are computed by the Beckman scintillation counter (Model LS6500) for each compound concentration. Computation of linear regression, best-fit line, r^2, and 95% confidence intervals are calculated using Prism Version 3.0 (Graph Pad Software).

[6] abbreviates: Mueller Hinton Broth, read-out: SA/MH(MIC).
[7] abbreviates: Trypticase Soy Broth, read-out: SA/Tsoy(MIC).
The mark [8] stands for this setting: Trypticase Soy Broth, read-out: Ecoli/Tsoy(MIC).
Where [9] appears, read: Mueller Hinton Broth, read-out: EF/MH(MIC).
[10] abbreviates: Trypticase Soy Broth, read-out: EF/Tsoy(MIC).

Molecules are shown by their SMILES. ≈ marks a conversion by molar mass, not a printed value. Read-outs that look alike come from different tables or passages of the source.

The values that follow come from patent publication US7649012B2, “Compounds, pharmaceutical compositions containing same, and methods of use for same” (FASgen, Inc., priority 2002, dated 2010).

For orientation: IC50 means the concentration needed to halve the response being measured. Low readings indicate greater potency, high ones weaker potency.

As for `CCCCCCCCC1(C)SC(=O)C(C(C)O)=C1OC` (stereo not drawn), the MIC in experiment [1] (setting [6]) is 53.3 ± 2.1 µg/mL (≈ 177 µM); in experiment [1] (setting [7]), 16.2 ± 3.8 µg/mL (≈ 53.9 µM); in experiment [3] (setting [8]) it was 249 µg/mL (≈ 829 µM); in experiment [4] (setting [9]), 77 µg/mL (≈ 256 µM); in experiment [4] (setting [10]) it was 25 µg/mL (≈ 83.2 µM). Besides, the “PSAE/MH(MIC)” value in experiment [2] is reported as “Neg”. Also, the “PSAE/Tsoy(MIC)” value in experiment [2] is “Neg”. Further, the “Ecoli/MH(MIC)” value in experiment [3] (Mueller Hinton Broth) is “Neg”. The compound further gave an IC50 in experiment [5] of 21.7 µg/mL (≈ 72.2 µM).

Consider `CCCCCC[C@@]1(C)SC(=O)C=C1OCC(=O)NCC(=O)O` (racemic), for which the MIC in experiment [1] (setting [6]) came out at 78 µg/mL (≈ 237 µM); in experiment [1] (setting [7]), 225 µg/mL (≈ 683 µM); in experiment [3] (setting [8]), 235 µg/mL (≈ 713 µM); in experiment [4] (setting [9]), 121 µg/mL (≈ 367 µM); in experiment [4] (setting [10]), 173 µg/mL (≈ 525 µM). In addition, in experiment [2], the “PSAE/MH(MIC)” value is “Neg”. The “PSAE/Tsoy(MIC)” value in experiment [2] is given as “Neg”. In addition, the “Ecoli/MH(MIC)” value in experiment [3] (Mueller Hinton Broth) is “Neg”. In experiment [5], the IC50 amounted to 6.6 µg/mL (≈ 20 µM).

As to `CCCCCCC1(C)SC(=O)C=C1OC` (stereo not drawn), the MIC in experiment [1] (setting [6]) is 45 µg/mL (≈ 197 µM); in experiment [1] (setting [7]) it was 48 µg/mL (≈ 210 µM); in experiment [3] (setting [8]) it was 264 µg/mL (≈ 1160 µM); in experiment [4] (setting [9]), 43 µg/mL (≈ 188 µM); in experiment [4] (setting [10]), 126 µg/mL (≈ 552 µM). The “PSAE/MH(MIC)” value in experiment [2] is recorded as “Neg”. Moreover, the “PSAE/Tsoy(MIC)” value in experiment [2] is “Neg”. In addition, the “Ecoli/MH(MIC)” value in experiment [3] (Mueller Hinton Broth) is on record as “Neg”. In experiment [5], this compound came in with an IC50 of 14 ± 2.8 µg/mL (≈ 61.3 µM).

Consider `CCCCCCC1(C)SC(=O)C=C1O` (stereo not drawn), for which the MIC in experiment [1] (setting [6]) came to 48 µg/mL (≈ 224 µM); in experiment [1] (setting [7]), 31 µg/mL (≈ 145 µM); in experiment [4] (setting [9]) it was 98 µg/mL (≈ 457 µM); in experiment [4] (setting [10]), 43 µg/mL (≈ 201 µM). Also, in experiment [2], the “PSAE/MH(MIC)” value is on record as “Neg”. The “PSAE/Tsoy(MIC)” value in experiment [2] is “Neg”. Besides, the “Ecoli/MH(MIC)” value in experiment [3] (Mueller Hinton Broth) is on record as “Neg”. In addition, the “Ecoli/Tsoy(MIC)” value in experiment [3] (Trypticase Soy Broth) was “Neg”. Besides, inhibition in experiment [5] was half-maximal at 16.5 ± 3.8 µg/mL (≈ 77 µM) (IC50).

As for `C=CCOC1=CC(=O)S[C@]1(C)CCCCCCCC` (racemic), the MIC worked out at 127 µg/mL (≈ 450 µM) in experiment [1] (setting [6]), 85 µg/mL (≈ 301 µM) in experiment [1] (setting [7]), 238 µg/mL (≈ 843 µM) in experiment [4] (setting [9]) and 238 µg/mL (≈ 843 µM) in experiment [4] (setting [10]). In experiment [2], the “PSAE/MH(MIC)” value is “Neg”. Further, the “PSAE/Tsoy(MIC)” value in experiment [2] is “Neg”. The “Ecoli/MH(MIC)” value in experiment [3] (Mueller Hinton Broth) is given as “Neg”. For the same compound, the “Ecoli/Tsoy(MIC)” value in experiment [3] (Trypticase Soy Broth) is listed as “Neg”. Besides, the “14C(IC50)” value in experiment [5] ([14C]acetate incorporation into lipids) was “Neg”.

With `CCCCCC[C@@]1(C)SC(=O)C=C1OCC(=O)OCC` (racemic), in experiment [1] (Mueller Hinton Broth), the “SA/MH(MIC)” value is listed as “Neg”. Moreover, the results for the MIC in experiment [1] (setting [7]), in experiment [3] (setting [8]) and in experiment [4] (setting [9]) were 129 µg/mL (≈ 429 µM), 281 µg/mL (≈ 935 µM) and 21.3 µg/mL (≈ 70.9 µM), respectively. Further, in experiment [2], the “PSAE/MH(MIC)” value is listed as “Neg”. In experiment [2], the “PSAE/Tsoy(MIC)” value is reported as “Neg”. Moreover, the “Ecoli/MH(MIC)” value in experiment [3] (Mueller Hinton Broth) is recorded as “Neg”. Moreover, in experiment [4] (Trypticase Soy Broth), the “EF/Tsoy(MIC)” value was “Neg”. The IC50 in experiment [5] is 14.2 ± 0.2 µg/mL (≈ 47.3 µM).

With `CCCCCCCC[C@@]1(C)SC(=O)C=C1OCC(=O)O`, the MIC was found to be 98 µg/mL (≈ 326 µM) in experiment [1] (setting [6]), 60 µg/mL (≈ 200 µM) in experiment [1] (setting [7]), 77 µg/mL (≈ 256 µM) in experiment [4] (setting [9]) and 164 µg/mL (≈ 546 µM) in experiment [4] (setting [10]). Besides, the “PSAE/MH(MIC)” value in experiment [2] is listed as “Neg”. In addition, the “PSAE/Tsoy(MIC)” value in experiment [2] was “Neg”. Also, the “Ecoli/MH(MIC)” value in experiment [3] (Mueller Hinton Broth) is reported as “Neg”. Moreover, the “Ecoli/Tsoy(MIC)” value in experiment [3] (Trypticase Soy Broth) is “Neg”. The IC50 in experiment [5] stood at 13.8 ± 1.1 µg/mL (≈ 45.9 µM).

In the case of `C=CCOC(=O)OC1=CC(=O)S[C@]1(C)CCCCCCCC` (racemic), the MIC in experiment [1] (setting [6]) was 57 µg/mL (≈ 175 µM); in experiment [1] (setting [7]) it was 28 µg/mL (≈ 85.8 µM); in experiment [3] (Mueller Hinton Broth, read-out: Ecoli/MH(MIC)), 82 µg/mL (≈ 251 µM); in experiment [3] (setting [8]) it was 87 µg/mL (≈ 266 µM); in experiment [4] (setting [9]), 79 µg/mL (≈ 242 µM); in experiment [4] (setting [10]) it was 75 µg/mL (≈ 230 µM). In addition, the “PSAE/MH(MIC)” value in experiment [2] is “Neg”. Also, in experiment [2], the “PSAE/Tsoy(MIC)” value is “Neg”. The IC50 in experiment [5] worked out at 14.2 µg/mL (≈ 43.5 µM).
